Test results reported in patent US9637483B2, “Heterocyclic compound” (TAKEDA PHARMACEUTICAL COMPANY LIMITED, priority 2013, dated 2017).

What was measured:
Type in all cases: biochemical
JAK2 = target: T1, JAK2 (Homo sapiens, UniProt O60674); assay: JAK2 enzyme inhibition test (LANCE method); conditions: 1 μM test compound; read-out: JAK2 enzyme inhibitory activity (%, 1 μM)
T1 construct: purchased Invitrogen
How it was run: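 TR-FRET (LANCE) read-out, ex 340/em 665 nm with 100 μs delay, after 1 hr room-temperature detection with europium anti-phosphotyrosine antibody and 20 mM EDTA. The preceding 1 hr kinase reaction combined JAK2, ULight-JAK1 substrate and ATP, added as 6 ng/mL, 300 nM and 45 μM solutions; enzyme-free wells defined 100% inhibition.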

JAK3 = target: T2, JAK3 (Homo sapiens, UniProt P52333); assay: JAK3 enzyme inhibition test (LANCE method); conditions: 1 μM test compound; read-out: JAK3 enzyme inhibitory activity (%, 1 μM)
T2 construct: purchased Invitrogen
T2 sequence (P52333 1-1124): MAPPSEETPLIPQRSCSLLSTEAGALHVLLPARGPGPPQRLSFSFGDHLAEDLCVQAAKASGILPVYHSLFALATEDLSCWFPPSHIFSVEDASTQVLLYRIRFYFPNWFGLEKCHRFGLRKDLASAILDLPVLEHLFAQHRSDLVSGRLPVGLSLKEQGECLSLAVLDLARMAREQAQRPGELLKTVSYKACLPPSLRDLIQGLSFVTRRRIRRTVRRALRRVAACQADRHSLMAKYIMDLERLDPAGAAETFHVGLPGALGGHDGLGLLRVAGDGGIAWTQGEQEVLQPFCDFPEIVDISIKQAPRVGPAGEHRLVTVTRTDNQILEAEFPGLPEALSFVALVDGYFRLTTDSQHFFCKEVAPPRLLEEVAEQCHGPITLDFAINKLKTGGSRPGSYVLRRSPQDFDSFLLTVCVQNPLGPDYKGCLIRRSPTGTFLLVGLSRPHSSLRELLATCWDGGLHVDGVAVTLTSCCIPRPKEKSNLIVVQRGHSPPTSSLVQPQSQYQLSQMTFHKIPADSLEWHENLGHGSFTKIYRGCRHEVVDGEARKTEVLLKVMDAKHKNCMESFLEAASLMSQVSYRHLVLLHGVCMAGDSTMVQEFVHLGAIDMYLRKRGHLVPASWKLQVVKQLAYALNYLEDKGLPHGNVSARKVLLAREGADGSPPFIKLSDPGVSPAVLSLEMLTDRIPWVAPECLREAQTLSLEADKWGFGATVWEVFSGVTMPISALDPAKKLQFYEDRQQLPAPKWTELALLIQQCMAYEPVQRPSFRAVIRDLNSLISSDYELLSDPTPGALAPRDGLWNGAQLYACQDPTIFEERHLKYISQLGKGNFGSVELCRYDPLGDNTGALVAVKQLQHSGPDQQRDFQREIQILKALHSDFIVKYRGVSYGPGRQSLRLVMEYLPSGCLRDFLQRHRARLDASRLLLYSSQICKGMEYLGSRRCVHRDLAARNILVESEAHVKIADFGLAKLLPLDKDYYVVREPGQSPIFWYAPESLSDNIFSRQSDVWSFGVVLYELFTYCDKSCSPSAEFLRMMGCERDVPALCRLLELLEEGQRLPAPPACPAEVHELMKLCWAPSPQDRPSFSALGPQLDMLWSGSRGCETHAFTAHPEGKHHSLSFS
How it was run: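 TR-FRET (LANCE) read: 1 h room-temperature reaction, EDTA quench, Eu-anti-phosphotyrosine antibody, emission 665 nm after 340 nm excitation. Added solutions held 12 ng/mL JAK3, 300 nM ULight-JAK1 substrate and 15 μM ATP (pH 7.5 HEPES). Activity expressed against no-enzyme wells defined as full inhibition.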

TYK2 = target: T3, TYK2 (Homo sapiens, UniProt P29597); assay: TYK2 enzyme inhibition test (LANCE method); conditions: 1 μM test compound; read-out: TYK2 enzyme inhibitory activity (%, 1 μM)
T3 construct: purchased Invitrogen
T3 sequence (P29597 whole entry): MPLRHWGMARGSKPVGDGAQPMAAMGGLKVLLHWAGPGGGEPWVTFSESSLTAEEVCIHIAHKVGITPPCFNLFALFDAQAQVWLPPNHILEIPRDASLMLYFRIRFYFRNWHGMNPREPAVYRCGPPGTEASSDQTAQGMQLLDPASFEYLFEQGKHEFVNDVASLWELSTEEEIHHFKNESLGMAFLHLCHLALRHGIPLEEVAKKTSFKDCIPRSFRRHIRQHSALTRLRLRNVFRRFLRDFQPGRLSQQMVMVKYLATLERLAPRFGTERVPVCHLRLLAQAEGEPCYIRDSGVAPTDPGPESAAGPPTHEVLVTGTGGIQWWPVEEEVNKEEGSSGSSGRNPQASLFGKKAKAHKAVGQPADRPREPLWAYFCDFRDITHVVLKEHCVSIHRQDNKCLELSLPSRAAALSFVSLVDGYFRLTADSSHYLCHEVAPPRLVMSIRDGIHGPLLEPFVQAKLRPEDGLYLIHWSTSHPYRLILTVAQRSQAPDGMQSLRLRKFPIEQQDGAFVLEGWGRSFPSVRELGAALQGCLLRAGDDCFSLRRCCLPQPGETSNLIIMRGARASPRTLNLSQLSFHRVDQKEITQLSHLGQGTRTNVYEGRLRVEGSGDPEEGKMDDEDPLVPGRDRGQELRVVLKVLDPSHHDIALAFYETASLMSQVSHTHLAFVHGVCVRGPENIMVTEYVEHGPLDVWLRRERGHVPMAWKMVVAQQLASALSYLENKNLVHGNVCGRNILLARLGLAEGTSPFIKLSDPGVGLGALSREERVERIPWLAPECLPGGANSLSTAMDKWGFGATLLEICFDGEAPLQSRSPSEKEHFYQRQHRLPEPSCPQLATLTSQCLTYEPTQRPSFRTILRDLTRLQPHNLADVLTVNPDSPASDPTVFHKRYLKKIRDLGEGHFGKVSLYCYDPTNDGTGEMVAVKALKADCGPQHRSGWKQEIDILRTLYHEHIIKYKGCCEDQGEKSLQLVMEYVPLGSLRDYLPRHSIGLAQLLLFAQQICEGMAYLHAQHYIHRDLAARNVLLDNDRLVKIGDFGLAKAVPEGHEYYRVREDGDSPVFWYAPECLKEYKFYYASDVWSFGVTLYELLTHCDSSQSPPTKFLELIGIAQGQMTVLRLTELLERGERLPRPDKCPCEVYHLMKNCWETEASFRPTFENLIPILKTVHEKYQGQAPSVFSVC
How it was run: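 TR-FRET (LANCE) readout: after 1 h room-temperature kinase reaction, EDTA plus 4 nM Eu-labelled anti-phosphotyrosine antibody added, signal at 665 nm (340 nm excitation). Reaction combined TYK2, ULight-JAK1 substrate and ATP, prepared at 375 ng/mL, 300 nM and 30 μM before addition, in pH 7.5 HEPES/MgCl2 buffer; enzyme-free wells define full inhibition.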

JAK1 = target: T4, JAK1 (Homo sapiens, UniProt P23458); assay: JAK1 enzyme inhibition test (LANCE method); conditions: 1 μM test compound; read-out: JAK1 enzyme inhibitory activity (%, 1 μM)
T4 construct: purchased Invitrogen
T4 sequence (P23458 whole entry): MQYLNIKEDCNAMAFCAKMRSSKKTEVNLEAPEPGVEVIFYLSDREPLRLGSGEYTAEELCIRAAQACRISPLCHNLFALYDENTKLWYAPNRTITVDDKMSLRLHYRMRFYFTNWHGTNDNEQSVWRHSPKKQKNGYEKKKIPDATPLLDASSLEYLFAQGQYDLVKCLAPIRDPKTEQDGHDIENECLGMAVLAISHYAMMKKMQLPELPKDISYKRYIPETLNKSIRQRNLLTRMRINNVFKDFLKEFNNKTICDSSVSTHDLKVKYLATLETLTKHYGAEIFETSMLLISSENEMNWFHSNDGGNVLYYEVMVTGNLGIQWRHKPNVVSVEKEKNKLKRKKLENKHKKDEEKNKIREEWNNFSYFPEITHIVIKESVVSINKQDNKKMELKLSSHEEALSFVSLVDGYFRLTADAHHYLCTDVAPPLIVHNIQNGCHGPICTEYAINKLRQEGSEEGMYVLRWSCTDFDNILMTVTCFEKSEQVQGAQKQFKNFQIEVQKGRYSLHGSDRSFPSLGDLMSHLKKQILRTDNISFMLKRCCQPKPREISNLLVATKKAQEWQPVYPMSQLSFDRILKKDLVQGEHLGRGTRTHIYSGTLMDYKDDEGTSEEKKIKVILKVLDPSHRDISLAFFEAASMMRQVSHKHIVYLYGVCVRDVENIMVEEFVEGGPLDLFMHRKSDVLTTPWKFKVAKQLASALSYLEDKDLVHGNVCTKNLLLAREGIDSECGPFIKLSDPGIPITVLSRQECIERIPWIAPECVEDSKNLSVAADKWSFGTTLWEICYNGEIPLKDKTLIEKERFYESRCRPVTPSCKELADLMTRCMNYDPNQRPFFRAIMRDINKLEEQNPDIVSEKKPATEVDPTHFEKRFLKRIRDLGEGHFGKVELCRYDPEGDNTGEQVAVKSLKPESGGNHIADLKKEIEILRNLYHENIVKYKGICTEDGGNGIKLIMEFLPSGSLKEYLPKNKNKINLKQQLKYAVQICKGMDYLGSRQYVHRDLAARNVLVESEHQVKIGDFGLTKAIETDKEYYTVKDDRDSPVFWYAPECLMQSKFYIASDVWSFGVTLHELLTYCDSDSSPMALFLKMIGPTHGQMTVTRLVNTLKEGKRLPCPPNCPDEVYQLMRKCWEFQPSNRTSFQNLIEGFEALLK
How it was run: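 Inhibition expressed against no-enzyme wells (100% inhibition), from time-resolved fluorescence at 665 nm after Eu-anti-phosphotyrosine antibody/EDTA detection. Kinase reaction ran 1 h at room temperature, pH 7.5 HEPES buffer, ULight-JAK1 substrate and ATP diluted to 300 nM and 150 μM before addition.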

T1 sequence (O60674 whole entry): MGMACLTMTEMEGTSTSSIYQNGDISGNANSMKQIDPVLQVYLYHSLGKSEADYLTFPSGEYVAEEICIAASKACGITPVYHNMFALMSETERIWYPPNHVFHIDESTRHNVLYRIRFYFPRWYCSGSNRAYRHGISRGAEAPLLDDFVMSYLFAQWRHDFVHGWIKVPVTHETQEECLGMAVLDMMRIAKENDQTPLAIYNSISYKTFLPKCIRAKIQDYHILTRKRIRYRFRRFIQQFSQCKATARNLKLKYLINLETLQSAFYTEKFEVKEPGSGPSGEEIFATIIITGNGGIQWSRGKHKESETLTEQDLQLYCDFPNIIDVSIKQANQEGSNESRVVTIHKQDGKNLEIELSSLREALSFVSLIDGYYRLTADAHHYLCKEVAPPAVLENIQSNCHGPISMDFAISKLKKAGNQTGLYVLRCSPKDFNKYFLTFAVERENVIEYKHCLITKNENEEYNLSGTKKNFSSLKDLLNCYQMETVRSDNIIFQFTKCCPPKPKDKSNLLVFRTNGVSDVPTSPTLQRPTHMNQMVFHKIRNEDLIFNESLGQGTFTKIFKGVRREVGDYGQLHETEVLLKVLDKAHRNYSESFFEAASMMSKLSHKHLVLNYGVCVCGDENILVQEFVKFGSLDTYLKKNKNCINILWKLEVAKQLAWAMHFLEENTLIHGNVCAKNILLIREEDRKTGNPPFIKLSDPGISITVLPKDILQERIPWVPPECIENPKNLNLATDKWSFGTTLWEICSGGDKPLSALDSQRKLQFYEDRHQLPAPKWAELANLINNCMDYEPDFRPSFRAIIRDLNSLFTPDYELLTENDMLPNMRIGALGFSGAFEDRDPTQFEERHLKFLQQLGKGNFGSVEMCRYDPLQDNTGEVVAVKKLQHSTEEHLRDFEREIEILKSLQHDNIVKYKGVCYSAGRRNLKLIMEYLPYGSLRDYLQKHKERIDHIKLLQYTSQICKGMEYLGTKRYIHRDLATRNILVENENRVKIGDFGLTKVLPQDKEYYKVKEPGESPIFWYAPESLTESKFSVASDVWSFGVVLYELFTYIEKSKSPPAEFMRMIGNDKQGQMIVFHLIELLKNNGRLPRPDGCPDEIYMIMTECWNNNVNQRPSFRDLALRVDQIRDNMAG

Row | Compound | inhibition at 1 µM (JAK2) | inhibition at 1 µM (JAK3) | inhibition at 1 µM (TYK2) | inhibition at 1 µM (JAK1)
1 | CO[C@@H]1CCN(c2cc(-c3cn(C(C4CC4)C4CC4)c(=O)c4c(N)n[nH]c34)nn2C)C1 [Example 164, 3-amino-5-(dicyclopropylmethyl)-7-(5-((3R)-3-methoxypyrrolidin-1-yl)-1-methyl-1H-pyrazol-3-yl)-1,5-dihydro-4H-pyrazolo[4,3-c]pyridin-4-one] | 99% | 100% | 101% | 99%
2 | Cn1nc(-c2cn(C(C3CC3)C3CC3)c(=O)c3c(N)n[nH]c23)cc1C(F)(F)F [Example 165, 3-amino-5-(dicyclopropylmethyl)-7-(1-methyl-5-(trifluoromethyl)-1H-pyrazol-3-yl)-1,5-dihydro-4H-pyrazolo[4,3-c]pyridin-4-one] | 98% | 100% | 100% | 100%
3 | Cn1nc(-c2cn(C(C3CC3)C3CC3)c(=O)c3c(N)n[nH]c23)cc1N1CC[C@H](O)C1 [Example 166, 3-amino-5-(dicyclopropylmethyl)-7-(5-((3S)-3-hydroxypyrrolidin-1-yl)-1-methyl-1H-pyrazol-3-yl)-1,5-dihydro-4H-pyrazolo[4,3-c]pyridin-4-one] | 99% | 100% | 101% | 100%
4 | CO[C@H]1CCN(c2cc(-c3cn(C(C4CC4)C4CC4)c(=O)c4c(N)n[nH]c34)nn2C)C1 [Example 167, 3-amino-5-(dicyclopropylmethyl)-7-(5-((3S)-3-methoxypyrrolidin-1-yl)-1-methyl-1H-pyrazol-3-yl)-1,5-dihydro-4H-pyrazolo[4,3-c]pyridin-4-one] | 99% | 100% | 101% | 100%
5 | Cn1nc(-c2cn(C(C3CC3)C3CC3)c(=O)c3c(N)n[nH]c23)cc1N1CCC[C@H]1CO [Example 168, 3-amino-5-(dicyclopropylmethyl)-7-(5-((2S)-2-(hydroxymethyl)pyrrolidin-1-yl)-1-methyl-1H-pyrazol-3-yl)-1,5-dihydro-4H-pyrazolo[4,3-c]pyridin-4-one] | 94% | 100% | 101% | 98%
6 | Cn1nc(-c2cn(C(C3CC3)C3CC3)c(=O)c3c(N)n[nH]c23)cc1N1CC[C@@H](O)C1 [Example 169, 3-amino-5-(dicyclopropylmethyl)-7-(5-((3R)-3-hydroxypyrrolidin-1-yl)-1-methyl-1H-pyrazol-3-yl)-1,5-dihydro-4H-pyrazolo[4,3-c]pyridin-4-one] | 98% | 99% | 98% | 98%

The remaining lines, values ahead:

Row | inhibition at 1 µM (JAK2) | inhibition at 1 µM (JAK3) | inhibition at 1 µM (TYK2) | inhibition at 1 µM (JAK1) | Compound
7 | 99% | 99% | 98% | 99% | Cn1nc(-c2cn(C(C3CC3)C3CC3)c(=O)c3c(N)n[nH]c23)cc1N1CCC(F)(F)C1 [Example 170, 3-amino-5-(dicyclopropylmethyl)-7-(5-(3,3-difluoropyrrolidin-1-yl)-1-methyl-1H-pyrazol-3-yl)-1,5-dihydro-4H-pyrazolo[4,3-c]pyridin-4-one]
8 | 94% | 98% | 98% | 93% | CN(C[C@H]1CCCN1c1cc(-c2cn(C(C3CC3)C3CC3)c(=O)c3c(N)n[nH]c23)nn1C)C(=O)OC(C)(C)C [Example 171, tert-butyl(((2R)-1-(3-(3-amino-5-(dicyclopropylmethyl)-4-oxo-4,5-dihydro-1H-pyrazolo[4,3-c]pyridin-7-yl)-1-methyl-1H-pyrazol-5-yl)pyrrolidin-2-yl)methyl)methylcarbamate]
9 | 98% | 98% | 98% | 93% | CNC[C@H]1CCCN1c1cc(-c2cn(C(C3CC3)C3CC3)c(=O)c3c(N)n[nH]c23)nn1C [Example 172, 3-amino-5-(dicyclopropylmethyl)-7-(1-methyl-5-((2R)-2-((methylamino)methyl)pyrrolidin-1-yl)-1H-pyrazol-3-yl)-1,5-dihydro-4H-pyrazolo[4,3-c]pyridin-4-one]
10 | 96% | 99% | 98% | 98% | Cc1cc(-c2cn(C(C3CC3)C3CC3)c(=O)c3c(N)n[nH]c23)nn1C [Example 173, 3-amino-5-(dicyclopropylmethyl)-7-(1,5-dimethyl-1H-pyrazol-3-yl)-1,5-dihydro-4H-pyrazolo[4,3-c]pyridin-4-one]
11 | 98% | 99% | 98% | 99% | Cn1nc(-c2cn(C(C3CC3)C3CC3)c(=O)c3c(N)n[nH]c23)cc1C(C)(C)O [Example 174, 3-amino-5-(dicyclopropylmethyl)-7-(5-(2-hydroxypropan-2-yl)-1-methyl-1H-pyrazol-3-yl)-1,5-dihydro-4H-pyrazolo[4,3-c]pyridin-4-one]
12 | 97% | 98% | 98% | 96% | CC(=O)N(C)C[C@H]1CCCN1c1cc(-c2cn(C(C3CC3)C3CC3)c(=O)c3c(N)n[nH]c23)nn1C [Example 175, N-(((2R)-1-(3-(3-amino-5-(dicyclopropylmethyl)-4-oxo-4,5-dihydro-1H-pyrazolo[4,3-c]pyridin-7-yl)-1-methyl-1H-pyrazol-5-yl)pyrrolidin-2-yl)methyl)-N-methylacetamide]
13 | 98% | 99% | 98% | 97% | CN(C[C@H]1CCCN1c1cc(-c2cn(C(C3CC3)C3CC3)c(=O)c3c(N)n[nH]c23)nn1C)S(C)(=O)=O [Example 176, N-(((2R)-1-(3-(3-amino-5-(dicyclopropylmethyl)-4-oxo-4,5-dihydro-1H-pyrazolo[4,3-c]pyridin-7-yl)-1-methyl-1H-pyrazol-5-yl)pyrrolidin-2-yl)methyl)-N-methylmethanesulfonamide]
